The compound `c1cc(-c2cnn3cc(-c4ccc(OCCN5CCOCC5)cc4)cnc23)cs1` [Example 4, 3-(3-thienyl)-6-(4-(2-(4-morpholinyl)ethoxy)phenyl) pyrazolo(1,5-A)pyrimidine] registered a melting point of 149 to 151 °C.

Values taken from patent publication US6380203B1, “Angiogenesis inhibitors” (Merck & Co., Inc., priority 1998, dated 2002).
